Data set [1] is described as follows: Drug uptake in mouse EMT6 tumor xenografted in Balb/c mouse after 60 mins by PET analysis. The note with it: in vivo, 1 h. Format: ADME, Neoplasm.
Data set [2] concerns Muscle tissue. Nature of the data set: Drug uptake in Balb/c mouse muscle after 30 to 60 mins by PET analysis. The note with it: in vivo. Format: ADME, tissue-based.
For data set [3], the system named is Nucleic Acid. Nature of the data set: Ratio of drug uptake in tumor to muscle of Balb/c mouse after 60 mins […] by PET analysis. The data set is classed as ADME, nucleic-acid assay. As to conditions: in vivo, 1 h; call rule not given here.
Data set [4] can be described thus: Drug uptake in mouse EMT6 tumor xenografted in Balb/c mouse assessed per mg of protein after 15 mins by PET analysis. Format: ADME, Neoplasm. The note with it: in vivo, 0.25 h.
Data set [5] is described as follows: Drug uptake in mouse EMT6 tumor xenografted in Balb/c mouse after 30 mins by PET analysis. Format: ADME, Neoplasm. As to conditions: in vivo, 0.5 h.
Data set [6] has as its system Muscle tissue. Nature of the data set: Drug uptake in Balb/c mouse muscle after 10 mins by PET analysis. Format: ADME, tissue-based. As to conditions: in vivo.
Data set [7] can be described thus: Drug uptake in mouse EMT6 tumor xenografted in Balb/c mouse assessed per mg of protein after 100 mins by PET analysis. The note with it: in vivo. Format: ADME, Neoplasm.

With `N[C@@H](Cc1ccc(OCC[18F])cc1)C(=O)O` [FLORETYROSINE F18], the SUV came to 1.21 in data set [1] and 1.28 in data set [5]. The Drug uptake result is on record as “Not Active” in data set [2], 105 %ID in data set [4], “Active” in data set [6] and 60 %ID in data set [7]. Also, the Ratio in data set [3] is reported as 4.04.
